Some test systems named below: SK-OV-3 ovarian; OVCAR-8 ovarian; A549 NSCLC; HOP-92 NSCLC; NCI-H522 lung; SK-MEL-28 melanoma; U251 CNS; KM12 colon; EKVX NSCLC; UACC-62 melanoma; DU-145 prostate; SNB-19 CNS; SK-MEL-5 melanoma; HS 578T breast; NCI-H460 lung; CAKI-1 renal; SF-539 CNS; HCC-2998 colon; HL-60(TB) leukemia.
What all share (assay): inhibition of tumour cell growth, NCI panel, 48 h

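Method: 48-hour compound exposure of cells in 96-well plates, five concentrations, linear interpolation of endpoints. Definition used: TGI = concentration required for complete inhibition of growth.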

For the compound `O=C1/C(=C/c2ccc(Cl)cc2)NC(=S)N1CN1CCCCC1`, the TGI with SK-OV-3 ovarian was > 100 µM; in the assay on OVCAR-8 ovarian, > 100 µM; in the assay with A549 NSCLC, > 100 µM; in the assay with HOP-92 NSCLC, > 100 µM; in the assay with NCI-H522 lung, 49.3 µM; in the assay with SK-MEL-28 melanoma, > 100 µM. Further, the TGI with U251 CNS is > 100 µM; in the assay on KM12 colon it was > 100 µM; in the assay with EKVX NSCLC it was > 100 µM; in the assay with UACC-62 melanoma, 54.4 µM; in the assay with DU-145 prostate it was > 100 µM; in the assay on SNB-19 CNS it was 68.7 µM. Also, the TGI with SK-MEL-5 melanoma was 97.4 µM; in the assay on HS 578T breast it was 62 µM.

`CC(=O)OC(C(=O)NNC(=O)OC(C)(C)C)c1ccccc1` (configuration not stated): the TGI with NCI-H460 lung, in the assay on SK-OV-3 ovarian, in the assay on OVCAR-8 ovarian, in the assay with A549 NSCLC, with HOP-92 NSCLC and with NCI-H522 lung was > 100 µM each time. In addition, the TGI in the assay with SK-MEL-28 melanoma, in the assay on CAKI-1 renal, in the assay with U251 CNS, in the assay with SF-539 CNS, in the assay with KM12 colon and in the assay on EKVX NSCLC was > 100 µM in each case. Further, the TGI with UACC-62 melanoma, in the assay on DU-145 prostate, with HCC-2998 colon, in the assay with SNB-19 CNS, in the assay with SK-MEL-5 melanoma and with HS 578T breast was > 100 µM in each case.

Regarding `COc1ccc(C2OC2C(=O)C23CC4CC(CC(C4)C2)C3)cc1` (configuration not stated), the TGI with NCI-H460 lung, with OVCAR-8 ovarian, in the assay on A549 NSCLC, in the assay on HOP-92 NSCLC, in the assay on NCI-H522 lung and in the assay on SK-MEL-28 melanoma was > 100 µM throughout. Moreover, the TGI in the assay with U251 CNS was > 100 µM; with SF-539 CNS it was > 100 µM; in the assay on KM12 colon, > 100 µM; in the assay on EKVX NSCLC it was > 100 µM; in the assay on UACC-62 melanoma it was 49 µM; in the assay on DU-145 prostate, > 100 µM. The TGI in the assay with HL-60(TB) leukemia was 97.2 µM; in the assay on HCC-2998 colon, > 100 µM; in the assay with SNB-19 CNS, > 100 µM; in the assay on SK-MEL-5 melanoma, > 100 µM; with HS 578T breast, 50.4 µM.

With `COC(=O)[C@@H](N1C(=O)c2ccccc2C1=O)C1(C)CC(Cl)=NO1` (some centres not stated), the TGI with NCI-H460 lung was > 100 µM; in the assay on SK-OV-3 ovarian, > 100 µM; in the assay with OVCAR-8 ovarian, 37 µM; with A549 NSCLC, > 100 µM; in the assay with NCI-H522 lung, 79.1 µM; in the assay with SK-MEL-28 melanoma it was > 100 µM. In addition, the TGI with CAKI-1 renal is 83.7 µM; with U251 CNS, 77.2 µM; in the assay with KM12 colon it was > 100 µM; in the assay on EKVX NSCLC, > 100 µM; in the assay with UACC-62 melanoma it was > 100 µM; in the assay on DU-145 prostate it was > 100 µM. The TGI is > 100 µM in the assay on HCC-2998 colon, 56.2 µM in the assay on SNB-19 CNS, > 100 µM in the assay on SK-MEL-5 melanoma and 75.3 µM in the assay with HS 578T breast.

Consider `CC(C)C1CC(CO)(CNc2nc(N)nc(Cl)c2C=O)C1` (configuration not stated), for which the TGI turned out to be 31.9 µM with NCI-H460 lung; 61.7 µM with SK-OV-3 ovarian; 8.33 µM with OVCAR-8 ovarian; 31.4 µM with A549 NSCLC; 4.83 µM with HOP-92 NSCLC; 1.14 µM in the assay with NCI-H522 lung. The TGI is 3.62 µM in the assay on SK-MEL-28 melanoma; 10.6 µM in the assay on U251 CNS; 41.5 µM in the assay on SF-539 CNS; > 46.7 µM in the assay on KM12 colon; 11.4 µM in the assay on EKVX NSCLC; 4.11 µM in the assay with UACC-62 melanoma. The TGI in the assay on DU-145 prostate is 29.1 µM; in the assay with HL-60(TB) leukemia it was 3.92 µM; with HCC-2998 colon it was 4.32 µM; in the assay with SNB-19 CNS, 17.1 µM; with HS 578T breast, 31.3 µM.

For the compound `C[C@@H](NC(=O)Nc1cccc(C(=O)Nc2cc(C(C)(C)C)ccc2C(=O)O)n1)c1ccccc1`, the TGI in the assay with NCI-H460 lung, with SK-OV-3 ovarian, in the assay on OVCAR-8 ovarian, with A549 NSCLC, in the assay with NCI-H522 lung and in the assay on SK-MEL-28 melanoma was > 100 µM in each case. Also, the TGI in the assay with CAKI-1 renal is > 100 µM; with U251 CNS, 37.8 µM; in the assay with KM12 colon, > 100 µM; in the assay on EKVX NSCLC it was > 100 µM; in the assay with UACC-62 melanoma, 50.9 µM; in the assay with DU-145 prostate, > 100 µM. Further, the TGI with HL-60(TB) leukemia, in the assay on HCC-2998 colon, with SNB-19 CNS, in the assay with SK-MEL-5 melanoma and with HS 578T breast was > 100 µM each time.

With `COc1ccc(CC(COS(=O)(=O)c2ccc(C)cc2)NS(=O)(=O)c2ccc(C)cc2)cc1` (configuration not stated), the TGI in the assay on NCI-H460 lung was 55.2 µM; with SK-OV-3 ovarian it was 43.7 µM; in the assay on OVCAR-8 ovarian it was > 100 µM; with A549 NSCLC it was > 62.2 µM; in the assay with HOP-92 NSCLC, 19.9 µM; with NCI-H522 lung it was 22.9 µM. Further, the TGI is 35.2 µM in the assay on SK-MEL-28 melanoma; > 60.8 µM in the assay on CAKI-1 renal; 26.2 µM in the assay on U251 CNS; > 100 µM in the assay on SF-539 CNS; > 77 µM in the assay with KM12 colon; 31.6 µM in the assay with EKVX NSCLC. Besides, the TGI in the assay on UACC-62 melanoma was found to be 43.8 µM; with DU-145 prostate it was 28.9 µM; in the assay with HCC-2998 colon, 29.5 µM; in the assay with SNB-19 CNS, 32.6 µM; with SK-MEL-5 melanoma, 24.6 µM; in the assay on HS 578T breast, 58.8 µM.

With `COC(=O)C#CC1(O)C=CC(=O)C=C1`, the TGI in the assay on NCI-H460 lung was 13.9 µM; with SK-OV-3 ovarian it was > 100 µM; in the assay on OVCAR-8 ovarian, 15.4 µM; in the assay with A549 NSCLC, > 48.1 µM; in the assay on HOP-92 NSCLC, 2.29 µM; with NCI-H522 lung, 0.552 µM. In addition, the TGI in the assay on SK-MEL-28 melanoma was 1.67 µM; with SF-539 CNS, > 35.1 µM; with KM12 colon, 2.3 µM; in the assay with EKVX NSCLC, 24.5 µM; in the assay with UACC-62 melanoma it was 2.64 µM; with DU-145 prostate, 16.7 µM. Besides, the TGI in the assay with HCC-2998 colon was found to be 8.15 µM; in the assay with SNB-19 CNS, 17.9 µM; in the assay on HS 578T breast it was 16.1 µM.

Source of the values: PubChem BioAssay (NCI).
